Test results as given in patent publication US8119355B2, “Biomarkers for cancer sensitivity and uses thereof” (The UAB Research Foundation, priority 2006, dated 2012).

Key:
[1] = system: COLO 205 tumors; assay: COLO 205 xenograft model, tumor size; format: in vivo, athymic nude mice; details: TRA-8 10 mg/kg intraperitoneally days 16 and 20; CPT-11 33 mg/kg intravenously days 17 and 21
Procedure: Preparation of sera from tumor-bearing mice. COLO 205 cells (1×10^7) were inoculated subcutaneously into athymic nude mice on day 0. The mice were grouped randomly. Each of the groups consisted of 3 mice. TRA-8 (10 mg/kg) was administered intraperitoneally to mice on days 16 and 20. CPT-11 (33 mg/kg) was administered intravenously to mice on days 17 and 21. Length and width of solid tumors were measured twice weekly. Tumor volume (mm^3) was calculated as axb^2/2, where a and b are the length and the width (mm) of the tumor, respectively. Tumor size was determined as a percentage relative to the tumor volume on day 16. Sera were obtained from the tumor-bearing mice on day 23.

[2] = system: COLO 205 human colon cancer cells; assay: cell viability, ATPLite assay, serum-free condition; format: cell-based; details: for effect on cell viability: 48 h; for cells killed: incubation time (24 or 48 h) not given
Procedure: (§1) Cell viability analysis: To examine the effect of the serum, the cells (2×10^4) were plated onto well of a 96-well microplate and cultured in complete culture medium at 37° C. for 24 h, washed with serum-free medium, and further incubated in 100 μl of complete medium or serum-free medium at 37° C. for the indicated times. Cell viability was assessed by measurement of cellular ATP levels using ATPlite™-M luminescence assay system (PerkinElmer, Inc., Waltham, Mass.) according to the manufacturer's instructions, and determined as a percentage relative to the luminescence value of cells, which were cultured in complete medium, used as a control. The assay of cell viability was repeated in triplicate experiments. Data were statistically analyzed by the Student t test. In case of the Student t test, if variance of homogeneity was rejected (P<0.05 by F test), the Welch test was applied. Probability values (P-values) less than 0.05 were considered to be statistically significant. All P-values were rounded to four decimal places.
(§2) To evaluate the effect of TRA-8 in serum-free condition, the cells were cultured as described above, washed with serum-free medium and treated with or without TRA-8 or chemotherapeutic agents in 100 μl of serum-free medium at 37° C. for the indicated times. Cell viability was assessed using ATPLite™ assay (PerkinElmer, Inc., Waltham, Mass.) and determined as a percentage relative to the luminescence value of untreated cells used as a control. The assay of cell viability was repeated in triplicate experiments.

[3] = system: WiDr human colon cancer cells; assay: as above; format: cell-based; details: for cells killed: incubation time (24 or 48 h) not given
Procedure: as §1, §2

SMILES | antitumor efficacy (tumor size) [1] | effect on cell viability ([2]; 50 μM agent) | cells killed ([2]; 50 μM agent) [%] | effect on cell viability ([3]; 50 μM oxaliplatin, 24 h) | effect on cell viability ([3]; 50 μM oxaliplatin, 48 h) | cells killed ([3]; 50 μM oxaliplatin) [%] | effect on cell viability ([2]; 1 μM paclitaxel) | cells killed ([2]; 1 μM paclitaxel) [%] | effect on cell viability ([3]; 1 μM paclitaxel, 48 h) | cells killed ([3]; 1 μM paclitaxel) [%]
CCc1c2c(nc3ccc(OC(=O)N4CCC(N5CCCCC5)CC4)cc13)-c1cc3c(c(=O)n1C2)COC(=O)[C@]3(O)CC [CPT-11] | not antitumor effects | significant effect | 71 |  |  |  |  |  |  | 
O=C1[O][Pt]2([NH][C@@H]3CCCC[C@H]3[NH]2)[O]C1=O [oxaliplatin] |  | affected cell viability | 41 | significant effect | affected cell viability | 99 |  |  |  | 
CC(=O)O[C@H]1C(=O)[C@@]2(C)[C@H]([C@H](OC(=O)c3ccccc3)[C@]3(O)C[C@H](OC(=O)[C@H](O)[C@@H](NC(=O)c4ccccc4)c4ccccc4)C(C)=C1C3(C)C)[C@]1(OC(C)=O)CO[C@@H]1C[C@@H]2O [paclitaxel] |  |  |  |  |  |  | affected cell viability | 62 | affected cell viability | 72
